≈ marks a conversion by molar mass, not a printed value. Read-outs that look alike come from different tables or passages of the source.
Experiments:
Type in all cases: cell-based
E. coli A20107 NPT-2 = assay: two-fold agar dilution MIC, Ec-49; settings: Escherichia coli
E. coli JR35/C600 NPT-1 = assay: two-fold agar dilution MIC, Ec-10
P. stuartii A20894 GAT-2 = assay: two-fold agar dilution MIC, Ps-2
E. coli A20732 GAS = assay: two-fold agar dilution MIC, Ec-72; settings: Escherichia coli, A20732GAS
P. vulgaris A9436 = assay: two-fold agar dilution MIC, Pv-1
[1] = test system: Pseudomonas sp. A20621 KAT, NPT-1,2; assay: two-fold agar dilution MIC, Px-10
E. coli NR79/W677 KAT = assay: two-fold agar dilution MIC, Ec-9; settings: Escherichia coli, NR79/W677KAT
P. aeruginosa GN-4925 = assay: two-fold agar dilution MIC, Pa-45; settings: Pseudomonas aeruginosa
S. aureus D133 SH, Sth-R = assay: two-fold agar dilution MIC, Sa-4
E. cloacae A21006 NPT-2 = assay: two-fold agar dilution MIC, E1-12
[2] = test system: P. aeruginosa #130 GAT-1, NPT; assay: two-fold agar dilution MIC, Pa-16
S. aureus Smith = assay: two-fold agar dilution MIC, Sa-2; settings: Staphylococcus aureus
[3] = test system: P. aeruginosa A20601 GAT-1; assay: two-fold agar dilution MIC, Pa-21; settings: Pseudomonas aeruginosa
P. mirabilis A9554 CL-R = assay: two-fold agar dilution MIC, Pm-1
S. marcescens A20019 = assay: two-fold agar dilution MIC, Sm-1; settings: Serratia marcescens
[4] = test system: S. marcescens A21247 NPT-1, GAS; assay: two-fold agar dilution MIC, Sm-16; settings: Serratia marcescens
[5] = test system: E. coli JR66/W677 NPT-2, GAS; assay: two-fold agar dilution MIC, Ec-53
B. subtilis PCT-219 = assay: two-fold agar dilution MIC, Bs-1; settings: Bacillus subtilis
[6] = test system: P. aeruginosa A20653 NPT-1,2; assay: two-fold agar dilution MIC, Pa-12; settings: Pseudomonas aeruginosa
[7] = test system: P. aeruginosa A20896 GAT-3; assay: two-fold agar dilution MIC, Pa-24
E. coli P01495 CP.TC-R = assay: two-fold agar dilution MIC, Ec-2; settings: Escherichia coli, P01495CP.TCR
S. aureus A20239 NPT-1,2 = assay: two-fold agar dilution MIC, Sa-10; settings: Run 2; Sa-10
E. coli R5 KAT = assay: two-fold agar dilution MIC, Ec-55
P. aeruginosa A9930 = assay: two-fold agar dilution MIC, Pa-3; settings: Pseudomonas aeruginosa
E. cloacae A20364 NPT-1 = assay: two-fold agar dilution MIC, E1-2; settings: Enterobacter cloacae
K. pneumoniae D11 = assay: two-fold agar dilution MIC, Kp-1; settings: Klebsiella pneumoniae
E. coli JR88 CAT-1 = assay: two-fold agar dilution MIC, Ec-62
[8] = test system: K. pneumoniae 22-3038 NPT-2, GAS; assay: two-fold agar dilution MIC, Kp-8
E. coli NIHJ = assay: two-fold agar dilution MIC, Ec-1
[9] = test system: S. aureus D137 PC, TC, EM-R; assay: two-fold agar dilution MIC, Sa-9
P. aeruginosa GN-315 KAT = assay: two-fold agar dilution MIC, Pa-27
E. coli ML1630 NPT-1 = assay: two-fold agar dilution MIC, Ec-5; settings: Escherichia coli
[10] = Staphylococcus aureus, Run 1, read-out: MIC

Compound `NCC1OC(OC2C(N)CC(N)C(OC3OC(CO)C(O)C(N)C3O)C2O)C(N)CC1O` (stereo not drawn) [tobramycin, 3'-deoxykanamycin B] has an MIC (E. coli A20107 NPT-2; A20107NPT2, Run 1) of 1.6 µg/mL (≈ 3.42 µM), an MIC (E. coli A20107 NPT-2; A20107NPT2, Run 2) of 1.6 µg/mL (≈ 3.42 µM) and an MIC (E. coli JR35/C600 NPT-1; Escherichia coli, JR35/C600NPT1) of 1.6 µg/mL (≈ 3.42 µM). The MIC (E. coli JR35/C600 NPT-1; Run 2, Ec-10) was 1.6 µg/mL (≈ 3.42 µM), the MIC (P. stuartii A20894 GAT-2; Providencia stuartii, A20894GAT2) was 12.5 µg/mL (≈ 26.7 µM) and the MIC (P. stuartii A20894 GAT-2; Run 2, Ps-2) was 12.5 µg/mL (≈ 26.7 µM). The MIC (E. coli A20732 GAS; Run 1) was 50 µg/mL (≈ 107 µM), the MIC (E. coli A20732 GAS; Run 2) was 1.6 µg/mL (≈ 3.42 µM) and the MIC (P. vulgaris A9436; Proteus vulgaris, A9436, Run 1, read-out: MIC) was 0.4 µg/mL (≈ 0.856 µM). The MIC (P. vulgaris A9436; Run 2) was 0.4 µg/mL (≈ 0.856 µM), the MIC ([1]; Pseudomonas, Run 1, read-out: MIC) was 25 µg/mL (≈ 53.5 µM) and the MIC ([1]; Run 2) was 25 µg/mL (≈ 53.5 µM). For the same compound, the MIC (E. coli NR79/W677 KAT; Run 1) was 1.6 µg/mL (≈ 3.42 µM), the MIC (E. coli NR79/W677 KAT; Run 2) was 0.8 µg/mL (≈ 1.71 µM) and the MIC (P. aeruginosa GN-4925; GN4925, Run 1) was 100 µg/mL (≈ 214 µM). It also gave an MIC (P. aeruginosa GN-4925; GN4925, Run 2) of 50 µg/mL (≈ 107 µM), an MIC (S. aureus D133 SH, Sth-R; Run 2) of 1.6 µg/mL (≈ 3.42 µM) and an MIC (S. aureus D133 SH, Sth-R; [10]) of 1.6 µg/mL (≈ 3.42 µM). It also gave an MIC (E. cloacae A21006 NPT-2; Enterobacter cloacae, A21006NPT2) of 1.6 µg/mL (≈ 3.42 µM), an MIC (E. cloacae A21006 NPT-2; Run 2, E1-12) of 1.6 µg/mL (≈ 3.42 µM) and an MIC ([2]; Pseudomonas aeruginosa, Run 1, read-out: MIC) of 3.1 µg/mL (≈ 6.63 µM). For the same compound, the MIC ([2]; Run 2) was 3.1 µg/mL (≈ 6.63 µM), the MIC (S. aureus Smith; Run 1) was 0.4 µg/mL (≈ 0.856 µM) and the MIC (S. aureus Smith; Run 2) was 0.2 µg/mL (≈ 0.428 µM). The MIC ([3]; A20601GAT1, Run 1) was 3.1 µg/mL (≈ 6.63 µM), the MIC ([3]; A20601GAT1, Run 2) was 1.6 µg/mL (≈ 3.42 µM) and the MIC (P. mirabilis A9554 CL-R; Proteus mirabilis, A9554CLR, Run 1, read-out: MIC) was 0.8 µg/mL (≈ 1.71 µM). For the same compound, the MIC (P. mirabilis A9554 CL-R; Run 2) was 0.8 µg/mL (≈ 1.71 µM), the MIC (S. marcescens A20019; A20019, Run 1, read-out: MIC) was 6.3 µg/mL (≈ 13.5 µM) and the MIC (S. marcescens A20019; A20019, Run 2) was 12.5 µg/mL (≈ 26.7 µM). The MIC ([4]; Run 1) was 50 µg/mL (≈ 107 µM), the MIC ([4]; Run 2) was 50 µg/mL (≈ 107 µM) and the MIC ([5]; Escherichia coli) was 25 µg/mL (≈ 53.5 µM). The MIC ([5]; Run 2, Ec-53) was 25 µg/mL (≈ 53.5 µM), the MIC (B. subtilis PCT-219; PCT219, Run 1) was 0.2 µg/mL (≈ 0.428 µM) and the MIC (B. subtilis PCT-219; PCT219, Run 2) was under 0.05 µg/mL. For the same compound, the MIC ([6]; Run 1) was 6.3 µg/mL (≈ 13.5 µM), the MIC ([6]; Run 2) was 3.1 µg/mL (≈ 6.63 µM) and the MIC ([7]; Pseudomonas aeruginosa, A20896GAT3, Run 1, read-out: MIC) was over 100 µg/mL. For the same compound, the MIC ([7]; Run 2) was over 100 µg/mL, the MIC (E. coli P01495 CP.TC-R; Run 1) was 1.6 µg/mL (≈ 3.42 µM) and the MIC (E. coli P01495 CP.TC-R; Run 2) was 0.8 µg/mL (≈ 1.71 µM). It also gave an MIC (S. aureus A20239 NPT-1,2) of 1.6 µg/mL (≈ 3.42 µM), an MIC (E. coli R5 KAT; Escherichia coli, R5KAT) of 0.8 µg/mL (≈ 1.71 µM) and an MIC (E. coli R5 KAT; Run 2, Ec-55) of 0.8 µg/mL (≈ 1.71 µM). It also gave an MIC (P. aeruginosa A9930; A9930, Run 1) of 0.4 µg/mL (≈ 0.856 µM), an MIC (P. aeruginosa A9930; A9930, Run 2) of 0.8 µg/mL (≈ 1.71 µM) and an MIC (E. cloacae A20364 NPT-1; A20364NPT1, Run 1) of 50 µg/mL (≈ 107 µM). The MIC (E. cloacae A20364 NPT-1; A20364NPT1, Run 2) was 1.6 µg/mL (≈ 3.42 µM), the MIC (K. pneumoniae D11; D11, Run 1) was 0.4 µg/mL (≈ 0.856 µM) and the MIC (K. pneumoniae D11; D11, Run 2) was 0.8 µg/mL (≈ 1.71 µM). For the same compound, the MIC (E. coli JR88 CAT-1; Escherichia coli, JR88CAT1) was 1.6 µg/mL (≈ 3.42 µM), the MIC (E. coli JR88 CAT-1; Run 2, Ec-62) was 1.6 µg/mL (≈ 3.42 µM) and the MIC ([8]; Klebsiella pneumoniae, Run 1, read-out: MIC) was 25 µg/mL (≈ 53.5 µM). The MIC ([8]; Run 2) was 25 µg/mL (≈ 53.5 µM), the MIC (E. coli NIHJ; Escherichia coli, Run 1, read-out: MIC) was 0.8 µg/mL (≈ 1.71 µM) and the MIC (E. coli NIHJ; Run 2) was 0.8 µg/mL (≈ 1.71 µM). For the same compound, the MIC ([9]; Run 2) was 3.1 µg/mL (≈ 6.63 µM), the MIC [9, 10] was 3.1 µg/mL (≈ 6.63 µM) and the MIC (P. aeruginosa GN-315 KAT; Pseudomonas aeruginosa, GN315, Run 1, read-out: MIC) was over 100 µg/mL. It also gave an MIC (P. aeruginosa GN-315 KAT; Run 2) of over 100 µg/mL, an MIC (E. coli ML1630 NPT-1; ML1630NPT1, Run 1) of 1.6 µg/mL (≈ 3.42 µM) and an MIC (E. coli ML1630 NPT-1; ML1630NPT1, Run 2) of 0.8 µg/mL (≈ 1.71 µM).
